According to patent US20170107179A1 (Tetraphase Pharmaceuticals, Inc., priority 2010, published 2017):
≈ marks a conversion by molar mass, not a printed value. Where two headings read alike, the source gives them in different places.

Experiments:
[1] = test system: S. aureus Smith; experiment: Mouse systemic infection (septicemia) model, CD-1 mice; conditions: Staphylococcus aureus, in Mus musculus, 48 h; for responders at 3 mg/kg: iv, read-out: Percent survival at 48 hours, IV (3 mg/kg); for responders at 30 mg/kg: po, read-out: Percent survival at 48 hours, PO (30 mg/kg)
[2] = test system: Gram-negative and Gram-positive organisms (clinical isolates); experiment: Broth microdilution MIC against clinical isolates (CLSI M7-A8), Table 9; assay type: cell-based
[3] = test system: Legionella pneumophila, 70 isolates, serogroups 1-6; experiment: microbe, parasite or virus in culture; assay type: cell-based

`CC(C)C[C@H]1NCc2c(F)c3c(c(O)c2NC1=O)C(=O)C1=C(O)[C@]2(O)C(=O)C(C(N)=O)=C(O)[C@@H](N(C)C)[C@@H]2C[C@@H]1C3` [Compound 419] gave a responders at 3 mg/kg [1] of 100% and a responders at 30 mg/kg [1] of 40%.
For `CC(C)C[C@@H]1C(=O)Nc2c(O)c3c(c(F)c2CN1C)C[C@H]1C[C@H]2[C@H](N(C)C)C(O)=C(C(N)=O)C(=O)[C@@]2(O)C(O)=C1C3=O` [Compound 428], the responders at 3 mg/kg [1] was 50% and the responders at 30 mg/kg [1] was 0%.
`CC[C@H]1OC(=O)[C@H](C)[C@@H](O[C@H]2C[C@@](C)(OC)[C@@H](O)[C@H](C)O2)[C@H](C)[C@@H](O[C@@H]2O[C@H](C)C[C@H](N(C)C)[C@H]2O)[C@](C)(O)C[C@@H](C)C(=O)[C@H](C)[C@@H](O)[C@]1(C)O` [Erythromycin] showed an MIC50 [2] of 0.03 µg/mL (≈ 0.0409 µM), an MIC90 [2] of over 0.5 µg/mL and an MIC50 ([2]; Staphylococcus aureus) of over 4 µg/mL. It also gave an MIC90 ([2]; Staphylococcus aureus) of over 4 µg/mL, an MIC50 ([2]; Streptococcus anginosus) of 0.03 µg/mL (≈ 0.0409 µM) and an MIC90 ([2]; Streptococcus anginosus) of over 0.5 µg/mL. For the same compound, the MIC50 ([2]; Streptococcus intermedius) was 0.06 µg/mL (≈ 0.0818 µM), the MIC90 ([2]; Streptococcus intermedius) was over 0.5 µg/mL and the MIC50 ([2]; Streptococcus mitis) was over 0.5 µg/mL. It also gave an MIC90 ([2]; Streptococcus mitis) of over 0.5 µg/mL, an MIC50 [3] of 0.25 µg/mL (≈ 0.341 µM) and an MIC90 [3] of 0.5 µg/mL (≈ 0.681 µM).
